Measurements taken from PubChem BioAssay (NCI).
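Results reflect a 48-hour exposure of cells in 96-well plates to compound at five concentrations. GI50 is the concentration that inhibits growth by half. The concentration for full growth arrest is given as TGI.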

Tests used:
Test in all cases: DTP human tumour cell line panel, 48 h
CCRF-CEM leukemia = system: CCRF-CEM leukemia
BT-549 breast = system: BT-549 breast
MALME-3M melanoma = system: MALME-3M melanoma
OVCAR-8 ovarian = system: OVCAR-8 ovarian
MCF7 breast = system: MCF7 breast
SF-539 CNS = system: SF-539 CNS
UACC-257 melanoma = system: UACC-257 melanoma
NCI-H460 lung = system: NCI-H460 lung
A549 NSCLC = system: A549 NSCLC
DU-145 prostate = system: DU-145 prostate
M14 melanoma = system: M14 melanoma
HT29 colon = system: HT29 colon
TK-10 renal = system: TK-10 renal
HOP-62 NSCLC = system: HOP-62 NSCLC
K-562 leukemia = system: K-562 leukemia
CAKI-1 renal = system: CAKI-1 renal
SK-MEL-28 melanoma = system: SK-MEL-28 melanoma
MOLT-4 leukemia = system: MOLT-4 leukemia
KM12 colon = system: KM12 colon
ACHN renal = system: ACHN renal
NCI/ADR-RES ovarian = system: NCI/ADR-RES ovarian
SR leukemia = system: SR leukemia
OVCAR-4 ovarian = system: OVCAR-4 ovarian
SK-MEL-5 melanoma = system: SK-MEL-5 melanoma
NCI-H23 lung = system: NCI-H23 lung
RPMI-8226 leukemia = system: RPMI-8226 leukemia
EKVX NSCLC = system: EKVX NSCLC
NCI-H522 lung = system: NCI-H522 lung
UO-31 renal = system: UO-31 renal

With CN1CCN(Cc2ccc(NC(=O)c3cncc(C#Cc4cnc5ccc(N)nn45)c3)cc2C(F)(F)F)CC1 the GI50 (CCRF-CEM leukemia) was 240 nM, the TGI (CCRF-CEM leukemia) was 50000 nM and the GI50 (BT-549 breast) was 2070 nM. It also gave a TGI (BT-549 breast) of 6050 nM, a GI50 (MALME-3M melanoma) of 496 nM and a TGI (MALME-3M melanoma) of 1520 nM. The GI50 (OVCAR-8 ovarian) was 1290 nM, the TGI (OVCAR-8 ovarian) was 5390 nM and the GI50 (MCF7 breast) was 284 nM. It also gave a TGI (MCF7 breast) of 2370 nM, a GI50 (SF-539 CNS) of 288 nM and a TGI (SF-539 CNS) of 3260 nM. The GI50 (UACC-257 melanoma) was 1070 nM, the TGI (UACC-257 melanoma) was 3340 nM and the GI50 (NCI-H460 lung) was 526 nM. For the same molecule, the TGI (NCI-H460 lung) was 3290 nM, the GI50 (A549 NSCLC) was 1620 nM and the TGI (A549 NSCLC) was 5890 nM. The GI50 (DU-145 prostate) was 1390 nM, the TGI (DU-145 prostate) was 5730 nM and the GI50 (M14 melanoma) was 690 nM. The TGI (M14 melanoma) was 1570 nM, the GI50 (HT29 colon) was 444 nM and the TGI (HT29 colon) was 2280 nM. For the same molecule, the GI50 (TK-10 renal) was 1290 nM, the TGI (TK-10 renal) was 2650 nM and the GI50 (HOP-62 NSCLC) was 1020 nM. The TGI (HOP-62 NSCLC) was 3710 nM, the GI50 (K-562 leukemia) was 5 nM and the TGI (K-562 leukemia) was 18100 nM. For the same molecule, the GI50 (CAKI-1 renal) was 1570 nM, the TGI (CAKI-1 renal) was 5830 nM and the GI50 (SK-MEL-28 melanoma) was 954 nM. For the same molecule, the TGI (SK-MEL-28 melanoma) was 2180 nM, the GI50 (MOLT-4 leukemia) was 369 nM and the TGI (MOLT-4 leukemia) was 5810 nM. It also gave a GI50 (KM12 colon) of 8.16 nM, a TGI (KM12 colon) of 1070 nM and a GI50 (ACHN renal) of 2440 nM. The TGI (ACHN renal) was 8150 nM, the GI50 (NCI/ADR-RES ovarian) was 25600 nM and the TGI (NCI/ADR-RES ovarian) was 50000 nM. The GI50 (SR leukemia) was 264 nM, the TGI (SR leukemia) was 2240 nM and the GI50 (OVCAR-4 ovarian) was 1580 nM. For the same molecule, the TGI (OVCAR-4 ovarian) was 16800 nM, the GI50 (SK-MEL-5 melanoma) was 3730 nM and the TGI (SK-MEL-5 melanoma) was 10300 nM. It also gave a GI50 (NCI-H23 lung) of 777 nM, a TGI (NCI-H23 lung) of 2860 nM and a GI50 (RPMI-8226 leukemia) of 1490 nM. The TGI (RPMI-8226 leukemia) was 5090 nM, the GI50 (EKVX NSCLC) was 2630 nM and the TGI (EKVX NSCLC) was 13300 nM. For the same molecule, the GI50 (NCI-H522 lung) was 234 nM, the TGI (NCI-H522 lung) was 1270 nM and the GI50 (UO-31 renal) was 5050 nM. It also gave a TGI (UO-31 renal) of 12900 nM.
